Measurements taken from PMC10482825 (Scientific Reports, 2023).

Experiments:
Assay in all cases: Radial diffusion assay
Settings in all cases: 5 µl of 500 µM per 3 mm well, 37 °C, mean ± SD
MRSA = format: cell-based, Methicillin-resistant Staphylococcus aureus (ATCC, BAA-41)
Source text: (§1) The microbial strains used in this study were Bacillus subtilis (ATCC, 11774), Candida albicans (TIMM, 1768), Enterococcus faecalis (ATCC, 33186), Escherichia coli (ATCC, 11775), Klebsiella pneumoniae (ATCC, 13883), Methicillin-resistant Staphylococcus aureus (ATCC, BAA-41), Pseudomonas aeruginosa (ATCC, 10145), Salmonella enterica (ATCC, 14028), Serratia marcescens (ATCC, 13880), Staphylococcus aureus (ATCC, 25923) and Vibrio parahaemolyticus (ATCC, 17802). All microbial strains were cultivated overnight at 37 °C and 200 rpm, then subcultured and incubated for 3 h under the same incubation conditions to obtain the mid-logarithmic growth phase. The cultivated cells were washed twice with 10 mM Tris–HCl containing 5 mM D-glucose at pH 7.4 and suspended in the same buffer to be used in different assays, as previously described.
(§2) The antimicrobial activity spectra of the selected cryptides were screened against all the mentioned microbial pathogens, except V. parahaemolyticus, by radial diffusion assay as previously described, with slight modifications. […] The plates were then incubated for 18 h, and the antimicrobial activities were measured in the absolute unit (AU), as previously described. […]
(§3) plate. The plates were then incubated for 12 h at 37 °C and antimicrobial activities were measured in the term of absolute unit (A.U). […]

S. marcescens = format: cell-based, Serratia marcescens (ATCC, 13880)
Source text: as §1, §2, §3

S. aureus = format: cell-based, Staphylococcus aureus (ATCC, 25923)
Source text: as §1, §2, §3

RHCLRSKRPPNVCPH [AD4, cationic cryptide from P. vannamei precursor DN34505 (Pl-crustin 2), chemically synthesised]
Antimicrobial activity (inhibition zone) MRSA (MRSA): 12.2 ± 1.1 A.U.
Antimicrobial activity (inhibition zone) S. marcescens (S. marcescens): 0 A.U.
Antimicrobial activity (inhibition zone) S. aureus (S. aureus): 24.4 ± 0.9 A.U.
